From patent publication US20260241012A1, “1,8-NAPHTHYRIDIN-2-ONE HETEROBIFUNCTIONAL BCL6 DEGRADERS” (Treeline Biosciences, Inc., priority 2022, published 2026)

Target: T1, N-terminal HiBiT tagged BCL6 (Homo sapiens, UniProt P41182)
T1 construct: expressed in transfected cells; host or cells: HT1080 (ATCC CCL-121), stably transduced with lentivirus pLV-UBC-N-HiBiT-BCL6-PGK-puro
Test: HiBiT based degradation assay
Type: cell-based
Details: HT1080 cells expressing N-terminal HiBiT tagged BCL6, 5 hours of incubation; for Ymin (5 hr): BCL6 degradation normalized with DMSO control; for DC50: four-parameter logistic model, read-out: EC50 (5 hr)
Method in brief: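 Degradation measured by luminescence from the Nano-Glo HiBiT lytic reagent (15 min, room temperature), normalized to DMSO controls and fitted to a four-parameter curve.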

Ymin (5 hr)	DC50 [µM]	Structure (SMILES)
++++ (Ymin < 30%)	< 0.01	CNC(=O)COc1cc2cc(Nc3nc(N4CCC(Oc5ccc6c(C7CCC(=O)NC7=O)nn(C)c6c5)CC4)ncc3Cl)cnc2n(C)c1=O (stereo not shown) [Compound 147, 2-((6-((5-chloro-2-(4-((3-(2,6-dioxopiperidin-3-yl)-1-methyl-1H-indazol-6-yl)oxy)piperidin-1-yl)pyrimidin-4-yl)amino)-1-methyl-2-oxo-1,2-dihydro-1,8-naphthyridin-3-yl)oxy)-N-methylacetamide]
+++ (30% ≤ Ymin < 50%)	< 0.01	CNC(=O)COc1cc2cc(Nc3nc(N4CCC(Oc5cccc6c(C7CCC(=O)NC7=O)nn(C)c56)CC4)ncc3Cl)cnc2n(C)c1=O (stereo not shown) [Compound 148, 2-((6-((5-chloro-2-(4-((3-(2,6-dioxopiperidin-3-yl)-1-methyl-1H-indazol-7-yl)oxy)piperidin-1-yl)pyrimidin-4-yl)amino)-1-methyl-2-oxo-1,2-dihydro-1,8-naphthyridin-3-yl)oxy)-N-methylacetamide]
+++ (30% ≤ Ymin < 50%)	0.01 to 0.1	CNC(=O)COc1cc2cc(Nc3nc(N4CCN(CC5CCC6(CC5)CN(c5cccc7c(C8CCC(=O)NC8=O)nn(C)c57)C6)CC4)ncc3Cl)cnc2n(C)c1=O (stereo not shown) [Compound 149, 2-((6-((5-chloro-2-(4-((2-(3-(2,6-dioxopiperidin-3-yl)-1-methyl-1H-indazol-7-yl)-2-azaspiro[3.5]nonan-7-yl)methyl)piperazin-1-yl)pyrimidin-4-yl)amino)-1-methyl-2-oxo-1,2-dihydro-1,8-naphthyridin-3-yl)oxy)-N-methylacetamide]
++++ (Ymin < 30%)	< 0.01	CNC(=O)COc1cc2cc(Nc3nc(N4CCN(CC5CCN(c6cccc7c(C8CCC(=O)NC8=O)nn(C)c67)CC5)CC4)ncc3Cl)cnc2n(C2CC2)c1=O (stereo not shown) [Compound 150, 2-((6-((5-chloro-2-(4-((1-(3-(2,6-dioxopiperidin-3-yl)-1-methyl-1H-indazol-7-yl)piperidin-4-yl)methyl)piperazin-1-yl)pyrimidin-4-yl)amino)-1-cyclopropyl-2-oxo-1,2-dihydro-1,8-naphthyridin-3-yl)oxy)-N-methylacetamide]
+++ (30% ≤ Ymin < 50%)	< 0.01	CNC(=O)COc1cc2cc(Nc3nc(N4CCN(CC5CCN(c6ccc7c(C8CCC(=O)NC8=O)nn(C)c7c6)CC5)C[C@@H]4CO)ncc3Cl)cnc2n(C(C)C)c1=O (stereo partly drawn) [Compound 151a, 2-((6-((5-chloro-2-((2R)-4-((1-(3-(2,6-dioxopiperidin-3-yl)-1-methyl-1H-indazol-6-yl)piperidin-4-yl)methyl)-2-(hydroxymethyl)piperazin-1-yl)pyrimidin-4-yl)amino)-1-isopropyl-2-oxo-1,2-dihydro-1,8-naphthyridin-3-yl)oxy)-N-methylacetamide]
++ (50% ≤ Ymin < 70%)	< 0.01	CNC(=O)COc1cc2cc(Nc3nc(N4CCN(CC5CCN(c6ccc7c(C8CCC(=O)NC8=O)nn(C)c7c6)CC5)C[C@H]4CO)ncc3Cl)cnc2n(C(C)C)c1=O (stereo partly drawn) [Compound 151b, 2-((6-((5-chloro-2-((2S)-4-((1-(3-(2,6-dioxopiperidin-3-yl)-1-methyl-1H-indazol-6-yl)piperidin-4-yl)methyl)-2-(hydroxymethyl)piperazin-1-yl)pyrimidin-4-yl)amino)-1-isopropyl-2-oxo-1,2-dihydro-1,8-naphthyridin-3-yl)oxy)-N-methylacetamide]
+++ (30% ≤ Ymin < 50%)	0.01 to 0.1	CNC(=O)COc1cc2cc(Nc3cc(N4CCC(CN5CCN(c6cccc7c(C8CCC(=O)NC8=O)nn(C)c67)CC5)CC4)ncc3Cl)cnc2n(C(C)C)c1=O (stereo not shown) [Compound 152, 2-((6-((5-chloro-2-(4-((4-(3-(2,6-dioxopiperidin-3-yl)-1-methyl-1H-indazol-7-yl)piperazin-1-yl)methyl)piperidin-1-yl)pyridin-4-yl)amino)-1-isopropyl-2-oxo-1,2-dihydro-1,8-naphthyridin-3-yl)oxy)-N-methylacetamide]
+++ (30% ≤ Ymin < 50%)	< 0.01	CNC(=O)COc1cc2cc(Nc3nc(N4CCN(CC5CCN(c6ccc7c(C8CCC(=O)NC8=O)nn(C)c7c6)CC5)[C@@H](CO)C4)ncc3Cl)cnc2n(C(C)C)c1=O (stereo partly drawn) [Compound 153a, 2-((6-((5-chloro-2-((3R)-4-((1-(3-(2,6-dioxopiperidin-3-yl)-1-methyl-1H-indazol-6-yl)piperidin-4-yl)methyl)-3-(hydroxymethyl)piperazin-1-yl)pyrimidin-4-yl)amino)-1-isopropyl-2-oxo-1,2-dihydro-1,8-naphthyridin-3-yl)oxy)-N-methylacetamide]
+++ (30% ≤ Ymin < 50%)	< 0.01	CNC(=O)COc1cc2cc(Nc3nc(N4CCN(CC5CCN(c6ccc7c(C8CCC(=O)NC8=O)nn(C)c7c6)CC5)[C@H](CO)C4)ncc3Cl)cnc2n(C(C)C)c1=O (stereo partly drawn) [Compound 153b, 2-((6-((5-chloro-2-((3S)-4-((1-(3-(2,6-dioxopiperidin-3-yl)-1-methyl-1H-indazol-6-yl)piperidin-4-yl)methyl)-3-(hydroxymethyl)piperazin-1-yl)pyrimidin-4-yl)amino)-1-isopropyl-2-oxo-1,2-dihydro-1,8-naphthyridin-3-yl)oxy)-N-methylacetamide]
++++ (Ymin < 30%)	< 0.01	CNC(=O)COc1cc2cc(Nc3nc(N4CCN(CC5CCN(c6cccc7c(C8CCC(=O)NC8=O)nn(C)c67)CC5)CC4)ncc3Cl)cnc2n(CCOC)c1=O (stereo not shown) [Compound 154, 2-((6-((5-chloro-2-(4-((1-(3-(2,6-dioxopiperidin-3-yl)-1-methyl-1H-indazol-7-yl)piperidin-4-yl)methyl)piperazin-1-yl)pyrimidin-4-yl)amino)-1-(2-methoxyethyl)-2-oxo-1,2-dihydro-1,8-naphthyridin-3-yl)oxy)-N-methylacetamide]
+++ (30% ≤ Ymin < 50%)	0.01 to 0.1	CNC(=O)COc1cc2cc(Nc3nc(N4CCN(CC5CCN(c6cccc7c(C8CCC(=O)NC8=O)nn(C)c67)CC5)C[C@H]4CO)ncc3Cl)cnc2n(C(C)C)c1=O (stereo partly drawn) [Compound 155a, 2-((6-((5-chloro-2-((2S)-4-((1-(3-(2,6-dioxopiperidin-3-yl)-1-methyl-1H-indazol-7-yl)piperidin-4-yl)methyl)-2-(hydroxymethyl)piperazin-1-yl)pyrimidin-4-yl)amino)-1-isopropyl-2-oxo-1,2-dihydro-1,8-naphthyridin-3-yl)oxy)-N-methylacetamide]
++++ (Ymin < 30%)	< 0.01	CNC(=O)COc1cc2cc(Nc3nc(N4CCN(CC5CCN(c6cccc7c(C8CCC(=O)NC8=O)nn(C)c67)CC5)C[C@@H]4CO)ncc3Cl)cnc2n(C(C)C)c1=O (stereo partly drawn) [Compound 155b, 2-((6-((5-chloro-2-((2R)-4-((1-(3-(2,6-dioxopiperidin-3-yl)-1-methyl-1H-indazol-7-yl)piperidin-4-yl)methyl)-2-(hydroxymethyl)piperazin-1-yl)pyrimidin-4-yl)amino)-1-isopropyl-2-oxo-1,2-dihydro-1,8-naphthyridin-3-yl)oxy)-N-methylacetamide]
++++ (Ymin < 30%)	0.01 to 0.1	CNC(=O)COc1cc2cc(Nc3nc(N4CCN(CC5CCN(c6cccc7c(C8CCC(=O)NC8=O)nn(C)c67)CC5)CC4)ncc3Cl)cnc2n(CC2CC2)c1=O (stereo not shown) [Compound 157, 2-((6-((5-chloro-2-(4-((1-(3-(2,6-dioxopiperidin-3-yl)-1-methyl-1H-indazol-7-yl)piperidin-4-yl)methyl)piperazin-1-yl)pyrimidin-4-yl)amino)-1-(cyclopropylmethyl)-2-oxo-1,2-dihydro-1,8-naphthyridin-3-yl)oxy)-N-methylacetamide]
++ (50% ≤ Ymin < 70%)	< 0.01	CNC(=O)COc1cc2cc(Nc3nc(N4CCN(C(C)(C)C5CCN(c6ccc7c(C8CCC(=O)NC8=O)nn(C)c7c6)CC5)CC4)ncc3Cl)cnc2n(C(C)C)c1=O (stereo not shown) [Compound 158, 2-((6-((5-chloro-2-(4-(2-(1-(3-(2,6-dioxopiperidin-3-yl)-1-methyl-1H-indazol-6-yl)piperidin-4-yl)propan-2-yl)piperazin-1-yl)pyrimidin-4-yl)amino)-1-isopropyl-2-oxo-1,2-dihydro-1,8-naphthyridin-3-yl)oxy)-N-methylacetamide]
++++ (Ymin < 30%)	< 0.01	CNC(=O)COc1cc2cc(Nc3cc(N4CCN(CC5CCN(c6cccc7c(C8CCC(=O)NC8=O)nn(C)c67)CC5)CC4)ncc3Cl)cnc2n(C)c1=O (stereo not shown) [Compound 160, 2-((6-((5-chloro-2-(4-((1-(3-(2,6-dioxopiperidin-3-yl)-1-methyl-1H-indazol-7-yl)piperidin-4-yl)methyl)piperazin-1-yl)pyridin-4-yl)amino)-1-methyl-2-oxo-1,2-dihydro-1,8-naphthyridin-3-yl)oxy)-N-methylacetamide]
++++ (Ymin < 30%)	0.01 to 0.1	CNC(=O)COc1cc2cc(Nc3nc(N4CCC(F)(CN5CCC(c6cccc7c(C8CCC(=O)NC8=O)nn(C)c67)CC5)CC4)ncc3Cl)cnc2n(C(C)C)c1=O (stereo not shown) [Compound 161, 2-((6-((5-chloro-2-(4-((4-(3-(2,6-dioxopiperidin-3-yl)-1-methyl-1H-indazol-7-yl)piperidin-1-yl)methyl)-4-fluoropiperidin-1-yl)pyrimidin-4-yl)amino)-1-isopropyl-2-oxo-1,2-dihydro-1,8-naphthyridin-3-yl)oxy)-N-methylacetamide]

Structure (SMILES)	Ymin (5 hr)	DC50 [µM]
CNC(=O)COc1cc2cc(Nc3nc(N4C5COCC4CN(CC4CCN(c6cccc7c(C8CCC(=O)NC8=O)nn(C)c67)CC4)C5)ncc3Cl)cnc2n(C(C)C)c1=O (stereo not shown) [Compound 162, 2-((6-((5-chloro-2-(7-((1-(3-(2,6-dioxopiperidin-3-yl)-1-methyl-1H-indazol-7-yl)piperidin-4-yl)methyl)-3-oxa-7,9-diazabicyclo[3.3.1]nonan-9-yl)pyrimidin-4-yl)amino)-1-isopropyl-2-oxo-1,2-dihydro-1,8-naphthyridin-3-yl)oxy)-N-methylacetamide]	++++ (Ymin < 30%)	< 0.01
